Data from patent US12479927B2, “Compounds comprising cleavable linker and uses thereof” (priority 2017, dated 2025).

How the values were obtained:
[1] = molecular target: Escherichia coli β-galactosidase (Escherichia coli, UniProt P00722); assay: in vitro; conditions: recombinant enzyme, pH 7.4
Experimental: Method 1. Escherichia coli β-galactosidase
MPS used as a standard material was dissolved in PBS buffer solution to make 500 uM solution. […] This was followed by the addition of enzyme solution (14 μL of 1 mg/mL). When comparing with human β-galactosidase, 21 μL of enzyme solution (1 mg/mL) was added to achieve the same molar concentration, and the compound of the present invention and MPS each having an amount of 140 μL and […] of the buffer solution (pH 7.4) were mixed. The resulting reaction mixture was incubated at 37° C. Escherichia coli β-galactosidase enzyme (Sigma G4155) was used in the reaction mixture. The enzyme reaction solution was aliquoted at 0 min before the reaction and at a predetermined time after the reaction, respectively, wherein each aliquot was 70 μL. Then, the remaining compound of the present invention or MPS, and a material liberated by the enzyme reaction were quantitatively analyzed by HPLC.

[2] = molecular target: T1, Escherichia coli β-glucuronidase (Escherichia coli, UniProt P05804); assay: Enzymatic cleavage assay, Method 3; assay type: biochemical; conditions: Escherichia coli β-glucuronidase (Sigma G7396) in PBS buffer, PBS pH 7.4, 37° C., HPLC, read-out: TG release t1/2(min)
T1 construct: purchased Sigma G7396
T1 sequence (P05804 whole entry): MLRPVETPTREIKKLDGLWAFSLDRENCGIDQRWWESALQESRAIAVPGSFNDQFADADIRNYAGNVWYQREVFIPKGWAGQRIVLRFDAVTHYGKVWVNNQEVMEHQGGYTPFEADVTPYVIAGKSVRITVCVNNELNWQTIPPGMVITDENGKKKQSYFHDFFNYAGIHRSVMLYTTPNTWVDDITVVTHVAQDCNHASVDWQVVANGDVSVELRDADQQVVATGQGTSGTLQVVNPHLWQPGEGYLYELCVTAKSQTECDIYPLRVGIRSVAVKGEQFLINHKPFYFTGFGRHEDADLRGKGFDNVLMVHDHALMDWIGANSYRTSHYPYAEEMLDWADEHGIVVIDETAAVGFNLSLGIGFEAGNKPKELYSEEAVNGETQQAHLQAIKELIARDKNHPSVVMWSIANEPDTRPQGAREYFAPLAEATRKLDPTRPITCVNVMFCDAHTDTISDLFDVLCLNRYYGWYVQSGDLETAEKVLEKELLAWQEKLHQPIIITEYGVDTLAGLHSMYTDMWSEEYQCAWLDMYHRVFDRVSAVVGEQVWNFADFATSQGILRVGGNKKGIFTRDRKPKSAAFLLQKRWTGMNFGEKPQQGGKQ
Experimental: Method 3) Escherichia coli β-glucuronidase
The compounds A-1 and A-5 of the present invention were dissolved in DMSO, and mixed with PBS buffer solution to prepare a solution having a concentration of 500 μM (5% DMSO). MPS used as a standard material was prepared as a solution to have a concentration of 500 μM in PBS buffer solution. […] Then, 14 μL of enzyme solution (1 mg/mL) was added thereto, thereby preparing an enzyme reaction solution in a total amount of 700 μL. The reaction mixture was incubated at 37° C. Escherichia coli β-glucuronidase enzyme (Sigma G7396) was used in the reaction mixture.

[3] = system: Escherichia coli β-galactosidase + β-glucuronidase; assay: Enzymatic cleavage assay, Method 4; assay type: biochemical; conditions: PBS pH 7.4, 37° C., HPLC, read-out: TG release t1/2(min)
Experimental: Method 4 Escherichia coli β-Galactosidase+β-Glucuronidase
The compound A-5 of the present invention was dissolved in DMSO, and mixed with PBS buffer solution to prepare a solution having a concentration of 500 μM (5% DMSO). MPS used as a standard material was prepared as a solution to have a concentration of 500 μM in PBS buffer solution. […] Then, 14 μL of 1 mg/mL of β-galactosidase (Sigma G4155) and 14 μL of 1 mg/mL of β-glucuronidase (Sigma G7396) were added thereto, thereby preparing an enzyme reaction mixture in a total amount of 700 μL. The reaction mixture was incubated at 37° C.

[4] = Plasma stability test, mouse; assay type: in vitro ADME; conditions: 37° C., up to 7 days, 300 μM
Experimental: (§1) The compound A-1 obtained in Example 58 and MPS used as a standard material were dissolved in DMSO to make a concentration of 60 mM. Then, each of human plasma (Biochemed 752R-SC-PMG), mouse plasma (Biochemed 029-APSC-MP), rat plasma (Biochemed 031-APSC-MP), and beagle dog plasma (Biochemed 013-APSC-MP) were mixed with the compound and MPS to make a final concentration of 300 μM (final 0.5% DMSO). The resulting plasma mixtures were incubated at 37° C. water bath. Aliquots were taken before the reaction and on 1 day, 2 days, 4 days, and 7 days after the reaction, wherein each aliquot was 300 μL. To complete the reaction, two-fold volumes of acetonitrile was added, followed by brief vortexing, and centrifugation for plasma protein precipitation. Each supernatant obtained after centrifugation was collected and analyzed by HPLC. The compound A-1 was detected and quantitated in the mouse, rat, beagle dog, and human plasma for up to 7 days (>95%).

[5] = Plasma stability test, rat; assay type: in vitro ADME; conditions: 37° C., up to 7 days, 300 μM
Experimental: as §1

[6] = Plasma stability test, dog; assay type: in vitro ADME; conditions: beagle dog plasma, 37° C., up to 7 days, 300 μM
Experimental: as §1

[7] = Plasma stability test, human; assay type: in vitro ADME; conditions: 37° C., up to 7 days, 300 μM
Experimental: as §1

[8] = Chemical stability in PBS; assay type: physicochemical; conditions: PBS (pH 7.4), room temperature, light blocked, 7 days incubation
Experimental: The compound A-1 obtained by Example 58 was dissolved in DMSO, and mixed with PBS (pH 7.4) buffer solution to prepare a solution having a concentration of 500 μM (5% DMSO). MPS used as a standard material was prepared as a solution to have a concentration of 500 μM in PBS buffer solution. 420 μL of the buffer solution, and 140 μL of the compound A-1 solution and 140 μL of MPS solution were mixed, thereby preparing a reaction mixture in a total amount of 700 μL. The reaction mixture was incubated at room temperature while blocking the light. The reaction mixture was aliquoted on 0 day before the reaction and on 1 day, 2 days, 4 days, and 7 days after the reaction, wherein each aliquot amount was 70 μL. Then, the remaining compound A-1, MPS, and liberated tyrosine were quantitated by HPLC analysis.

SKBR-3 cancer cells = assay: In vitro analysis of antibody-drug conjugate, SKBR-3; assay type: cell-based; conditions: 96 hours
Experimental: (§2) KB cancer cells were collected and seeded in 24-well plates at a density of 30,000 cells per well in 2 mL of medium, and cultured for 24 hours. Then, the serial dilutions of compound C-1 obtained in Example 108 were treated from 30 nM to 0.0096 nM, the serial dilutions of compound C-2 obtained in Example 109 were treated from 1000 nM to 0.32 nM, serial dilutions of the compound C-3 obtained in Example 110 and the compound C-7 obtained in Example 114 were treated from 25 nM to 0.0016 nM, and serial dilutions of the drug MMAF-OMe were treated from 10 nM to 0.0097 nM. The serial dilutions of compounds C-5 and C-6 obtained in Example 112 and Example 113 were treated from 100 nM to 0.0001 nM, and the serial dilutions of drug seco-DUBA were treated from 100 nM to 0.001 nM. […] The formazans formed by reduction of the MTT dye by mitochondrial oxidoreductases in the living cells were dissolved in DMSO, and measured using the absorbance at 550 nm.
(§3) KB, SKBR-3, BT-474, NCI-N87 cancer cells were seeded in 96-well plates at a density of 2,000 to 8,000 cells per well in 100 μL of medium, and cultured for 24 hours. […] Experiments were performed in a similar manner to Test Example 3 to quantify living cells 96 hours later, and results are shown in Tables 4 and 5 below.

BT-474 cancer cells = assay: In vitro analysis of antibody-drug conjugate, BT-474; assay type: cell-based; conditions: 96 hours
Experimental: as §2, §3

NCI-N87 cancer cells = assay: In vitro analysis of antibody-drug conjugate, NCI-N87; assay type: cell-based; conditions: 96 hours
Experimental: as §2, §3

NCI-N87 cells = assay: In vivo efficacy, tumor xenograft; set-up: species or system mice; conditions: male BALB/c nu/nu, single i.v. injection day 0, 2 mg/kg
Experimental: In vivo efficacy of antibody-drug conjugates of the invention was measured by tumor xenograft studies in mice. Male BALB/c nu/nu were injected subcutaneously in the right flank with suspensions of 1×10^6 of NCI-N87 cells respectively in PBS. Mice were randomized into study groups when tumors reached approximately 100 mm^3. T-DM1 (2 mg/kg), D-1-AB, D-2-AB, D-8-AB, and D-18-AB conjugates (0.5 mg/kg or 2 mg/kg) were given i.v. (single injection on treatment day 0). All treatment groups consisted of 6 to 10 animals per group, and tumor size was monitored twice weekly using caliper measurement. The tumor mass was calculated as volume=(width×width×length)/2.

Chain of Escherichia coli β-galactosidase (P00722 2-1024): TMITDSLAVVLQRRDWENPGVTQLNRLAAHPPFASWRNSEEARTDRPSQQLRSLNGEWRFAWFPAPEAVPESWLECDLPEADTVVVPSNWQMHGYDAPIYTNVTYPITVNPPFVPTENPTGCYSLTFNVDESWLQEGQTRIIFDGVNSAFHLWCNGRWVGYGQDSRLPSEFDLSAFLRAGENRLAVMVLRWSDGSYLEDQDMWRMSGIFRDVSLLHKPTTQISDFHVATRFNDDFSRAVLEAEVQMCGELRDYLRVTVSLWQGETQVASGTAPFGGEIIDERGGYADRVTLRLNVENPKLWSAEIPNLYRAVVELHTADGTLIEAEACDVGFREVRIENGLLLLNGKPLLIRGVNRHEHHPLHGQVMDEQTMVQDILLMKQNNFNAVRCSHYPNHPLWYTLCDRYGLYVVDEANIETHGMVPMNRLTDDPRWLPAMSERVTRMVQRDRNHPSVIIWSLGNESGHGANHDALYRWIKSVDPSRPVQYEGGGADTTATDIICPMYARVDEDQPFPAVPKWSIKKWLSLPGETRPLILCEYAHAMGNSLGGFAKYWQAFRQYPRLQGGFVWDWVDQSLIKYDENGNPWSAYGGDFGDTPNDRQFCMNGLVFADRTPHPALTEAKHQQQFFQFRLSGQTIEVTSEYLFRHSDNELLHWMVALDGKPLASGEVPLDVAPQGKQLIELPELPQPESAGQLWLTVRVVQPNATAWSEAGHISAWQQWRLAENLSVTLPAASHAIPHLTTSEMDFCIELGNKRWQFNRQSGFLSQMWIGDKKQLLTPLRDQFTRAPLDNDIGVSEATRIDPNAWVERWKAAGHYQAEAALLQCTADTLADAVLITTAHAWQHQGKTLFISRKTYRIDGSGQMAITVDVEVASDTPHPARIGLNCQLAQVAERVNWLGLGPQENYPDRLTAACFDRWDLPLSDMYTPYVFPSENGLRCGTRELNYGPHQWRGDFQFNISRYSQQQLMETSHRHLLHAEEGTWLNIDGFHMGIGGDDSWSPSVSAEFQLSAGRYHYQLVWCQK

Molecule	half-life at 100 μM [1] [min]	half-life at 100 μM [2] [min]	half-life at 100 μM [3] [min]	compound detected and quantitated in plasma [4] [%]	compound detected and quantitated in plasma [5] [%]	compound detected and quantitated in plasma [6] [%]	compound detected and quantitated in plasma [7] [%]	compound present (remaining) [8] [%]	IC50 (SKBR-3 cancer cells) [nM]	IC50 (BT-474 cancer cells) [nM]	IC50 (NCI-N87 cancer cells) [nM]	activity compared with the conjugates of the invention (NCI-N87 cells)
CC(C)(C)OC(=O)N[C@H](Cc1ccc(OS(=O)(=O)Oc2ccccc2O[C@@H]2O[C@H](COC3O[C@H](C(=O)O)[C@@H](O)[C@H](O)[C@H]3O)[C@H](O)[C@H](O)[C@H]2O)cc1)C(=O)O (stereo partly shown) [Compound A-5]	< 5	< 5	< 5									
CC(C)(C)OC(=O)NC(Cc1ccc(OS(=O)(=O)Oc2ccccc2O[C@@H]2O[C@H](CO)[C@H](O)[C@H](O)[C@H]2O)cc1)C(=O)O (stereo partly shown) [Compound A-1]		0.43 ± 0.11		> 95	> 95	> 95	> 95	> 95				
T-DM1									0.02	0.18	0.02	less active
